{"source": "the supplement of paper PMC10307832", "test_in_all_cases": "relative viability (nuclei count vs DMSO), 5 days (fraction); higher = more cells survive", "key": {"Calu-6": {"system": "Calu-6", "summary_of_the_method": "(§1)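 A single step with final 0.05% Triton X-100, 1% formaldehyde and 1 ug/ml Hoechst fixed the cells and stained nuclei 5 days after treatment. Lung cancer cell lines in 1536-well plates had been treated by pin tool the day after seeding with one drug alone or a fixed anchor-drug dose plus five library-drug doses (not always all listed) in √10 steps, and nuclei were counted on 4× images. Relative viability is the ratio of nuclei in treated wells to nuclei in vehicle wells, taken as the median of duplicate plates.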"}, "IA-LM": {"system": "IA-LM", "summary_of_the_method": "as §1"}, "CAL-12T": {"system": "CAL-12T", "summary_of_the_method": "as §1"}, "NCI-H1703": {"system": "NCI-H1703", "summary_of_the_method": "as §1"}, "NCI-H1650": {"system": "NCI-H1650", "summary_of_the_method": "as §1"}, "EBC-1": {"system": "EBC-1", "summary_of_the_method": "as §1"}, "LK-2": {"system": "LK-2", "summary_of_the_method": "as §1"}, "A549": {"system": "A549", "summary_of_the_method": "as §1"}, "NCI-H1299": {"system": "NCI-H1299", "summary_of_the_method": "as §1"}}}
{"smiles": "C=C1C(=O)O[C@@H](CCCCCCCC)[C@@H]1C(=O)O", "note": "[C-75] + CS(=O)(=O)CCNCc1ccc(-c2ccc3ncnc(Nc4ccc(OCc5cccc(F)c5)c(Cl)c4)c3c2)o1 [Lapatinib] (partner 2 µM)", "values": [{"measurement": "relative viability", "setting": "Calu-6; first compound 0.08 µM", "value": 1.03}, {"measurement": "relative viability", "setting": "Calu-6; first compound 0.253 µM", "value": 1.06}, {"measurement": "relative viability", "setting": "Calu-6; first compound 0.8 µM", "value": 1.04}, {"measurement": "relative viability", "setting": "Calu-6; first compound 2.53 µM", "value": 0.894}, {"measurement": "relative viability", "setting": "Calu-6; first compound 8 µM", "value": 0.925}, {"measurement": "relative viability", "setting": "IA-LM; first compound 0.08 µM", "value": 0.816}, {"measurement": "relative viability", "setting": "IA-LM; first compound 0.253 µM", "value": 0.954}, {"measurement": "relative viability", "setting": "IA-LM; first compound 8 µM", "value": 0.476}, {"measurement": "relative viability", "setting": "CAL-12T; first compound 0.08 µM", "value": 0.673}, {"measurement": "relative viability", "setting": "CAL-12T; first compound 0.253 µM", "value": 0.863}, {"measurement": "relative viability", "setting": "CAL-12T; first compound 0.8 µM", "value": 0.492}, {"measurement": "relative viability", "setting": "CAL-12T; first compound 2.53 µM", "value": 0.604}, {"measurement": "relative viability", "setting": "CAL-12T; first compound 8 µM", "value": 0.765}, {"measurement": "relative viability", "setting": "NCI-H1703; first compound 0.08 µM", "value": 1.17}, {"measurement": "relative viability", "setting": "NCI-H1703; first compound 0.8 µM", "value": 0.977}, {"measurement": "relative viability", "setting": "NCI-H1703; first compound 2.53 µM", "value": 1.17}, {"measurement": "relative viability", "setting": "NCI-H1703; first compound 8 µM", "value": 0.888}, {"measurement": "relative viability", "setting": "NCI-H1650; first compound 0.08 µM", "value": 0.844}, {"measurement": "relative viability", "setting": "NCI-H1650; first compound 0.253 µM", "value": 0.914}, {"measurement": "relative viability", "setting": "NCI-H1650; first compound 0.8 µM", "value": 0.775}, {"measurement": "relative viability", "setting": "NCI-H1650; first compound 2.53 µM", "value": 0.963}, {"measurement": "relative viability", "setting": "NCI-H1650; first compound 8 µM", "value": 1.09}, {"measurement": "relative viability", "setting": "EBC-1; first compound 0.08 µM", "value": 0.259}, {"measurement": "relative viability", "setting": "EBC-1; first compound 0.253 µM", "value": 0.237}, {"measurement": "relative viability", "setting": "EBC-1; first compound 0.8 µM", "value": 0.18}, {"measurement": "relative viability", "setting": "EBC-1; first compound 2.53 µM", "value": 0.243}, {"measurement": "relative viability", "setting": "EBC-1; first compound 8 µM", "value": 0.224}, {"measurement": "relative viability", "setting": "LK-2; first compound 0.08 µM", "value": 1.03}, {"measurement": "relative viability", "setting": "LK-2; first compound 0.253 µM", "value": 1.15}, {"measurement": "relative viability", "setting": "LK-2; first compound 0.8 µM", "value": 1.08}, {"measurement": "relative viability", "setting": "LK-2; first compound 2.53 µM", "value": 0.744}, {"measurement": "relative viability", "setting": "LK-2; first compound 8 µM", "value": 0.622}, {"measurement": "relative viability", "setting": "A549; first compound 0.08 µM", "value": 1.01}, {"measurement": "relative viability", "setting": "A549; first compound 0.253 µM", "value": 1.1}, {"measurement": "relative viability", "setting": "A549; first compound 0.8 µM", "value": 0.798}, {"measurement": "relative viability", "setting": "A549; first compound 2.53 µM", "value": 0.937}, {"measurement": "relative viability", "setting": "A549; first compound 8 µM", "value": 0.89}, {"measurement": "relative viability", "setting": "NCI-H1299; first compound 0.08 µM", "value": 0.971}, {"measurement": "relative viability", "setting": "NCI-H1299; first compound 0.253 µM", "value": 1}, {"measurement": "relative viability", "setting": "NCI-H1299; first compound 0.8 µM", "value": 0.935}, {"measurement": "relative viability", "setting": "NCI-H1299; first compound 2.53 µM", "value": 0.946}, {"measurement": "relative viability", "setting": "NCI-H1299; first compound 8 µM", "value": 0.955}]}
{"smiles": "NC(=O)Nc1cc(-c2cccc(F)c2)sc1C(=O)N[C@H]1CCCNC1", "note": "[AZD7762] + CS(=O)(=O)CCNCc1ccc(-c2ccc3ncnc(Nc4ccc(OCc5cccc(F)c5)c(Cl)c4)c3c2)o1 [Lapatinib] (partner 2 µM)", "values": [{"measurement": "relative viability", "setting": "Calu-6; first compound 0.01 µM", "value": 1.11}, {"measurement": "relative viability", "setting": "Calu-6; first compound 0.03162 µM", "value": 1.02}, {"measurement": "relative viability", "setting": "Calu-6; first compound 0.1 µM", "value": 0.96}, {"measurement": "relative viability", "setting": "Calu-6; first compound 0.3162 µM", "value": 0.2}, {"measurement": "relative viability", "setting": "Calu-6; first compound 1 µM", "value": 0.147}, {"measurement": "relative viability", "setting": "IA-LM; first compound 0.01 µM", "value": 1.13}, {"measurement": "relative viability", "setting": "IA-LM; first compound 0.03162 µM", "value": 1.11}, {"measurement": "relative viability", "setting": "IA-LM; first compound 0.1 µM", "value": 1.1}, {"measurement": "relative viability", "setting": "IA-LM; first compound 0.3162 µM", "value": 0.798}, {"measurement": "relative viability", "setting": "IA-LM; first compound 1 µM", "value": 0.16}, {"measurement": "relative viability", "setting": "CAL-12T; first compound 0.01 µM", "value": 0.781}, {"measurement": "relative viability", "setting": "CAL-12T; first compound 0.03162 µM", "value": 0.649}, {"measurement": "relative viability", "setting": "CAL-12T; first compound 0.1 µM", "value": 0.649}, {"measurement": "relative viability", "setting": "CAL-12T; first compound 0.3162 µM", "value": 0.703}, {"measurement": "relative viability", "setting": "CAL-12T; first compound 1 µM", "value": 0.314}, {"measurement": "relative viability", "setting": "NCI-H1703; first compound 0.01 µM", "value": 0.627}, {"measurement": "relative viability", "setting": "NCI-H1703; first compound 0.03162 µM", "value": 0.31}, {"measurement": "relative viability", "setting": "NCI-H1703; first compound 0.1 µM", "value": 0.238}, {"measurement": "relative viability", "setting": "NCI-H1703; first compound 0.3162 µM", "value": 0.176}, {"measurement": "relative viability", "setting": "NCI-H1703; first compound 1 µM", "value": 0.156}, {"measurement": "relative viability", "setting": "NCI-H1650; first compound 0.01 µM", "value": 0.747}, {"measurement": "relative viability", "setting": "NCI-H1650; first compound 0.03162 µM", "value": 0.852}, {"measurement": "relative viability", "setting": "NCI-H1650; first compound 0.1 µM", "value": 0.896}, {"measurement": "relative viability", "setting": "NCI-H1650; first compound 0.3162 µM", "value": 0.434}, {"measurement": "relative viability", "setting": "NCI-H1650; first compound 1 µM", "value": 0.167}, {"measurement": "relative viability", "setting": "EBC-1; first compound 0.01 µM", "value": 0.215}, {"measurement": "relative viability", "setting": "EBC-1; first compound 0.03162 µM", "value": 0.191}, {"measurement": "relative viability", "setting": "EBC-1; first compound 0.1 µM", "value": 0.234}, {"measurement": "relative viability", "setting": "EBC-1; first compound 0.3162 µM", "value": 0.199}, {"measurement": "relative viability", "setting": "EBC-1; first compound 1 µM", "value": 0.186}, {"measurement": "relative viability", "setting": "LK-2; first compound 0.01 µM", "value": 1.02}, {"measurement": "relative viability", "setting": "LK-2; first compound 0.03162 µM", "value": 1.03}, {"measurement": "relative viability", "setting": "LK-2; first compound 0.1 µM", "value": 0.759}, {"measurement": "relative viability", "setting": "LK-2; first compound 0.3162 µM", "value": 0.828}, {"measurement": "relative viability", "setting": "LK-2; first compound 1 µM", "value": 0.573}, {"measurement": "relative viability", "setting": "A549; first compound 0.01 µM", "value": 1.12}, {"measurement": "relative viability", "setting": "A549; first compound 0.03162 µM", "value": 1.02}, {"measurement": "relative viability", "setting": "A549; first compound 0.1 µM", "value": 1.05}, {"measurement": "relative viability", "setting": "A549; first compound 0.3162 µM", "value": 0.823}, {"measurement": "relative viability", "setting": "A549; first compound 1 µM", "value": 0.198}, {"measurement": "relative viability", "setting": "NCI-H1299; first compound 0.01 µM", "value": 0.955}, {"measurement": "relative viability", "setting": "NCI-H1299; first compound 0.03162 µM", "value": 0.963}, {"measurement": "relative viability", "setting": "NCI-H1299; first compound 0.1 µM", "value": 0.968}, {"measurement": "relative viability", "setting": "NCI-H1299; first compound 0.3162 µM", "value": 0.811}, {"measurement": "relative viability", "setting": "NCI-H1299; first compound 1 µM", "value": 0.289}]}
